Melting point data for 85 molecules are collected here from the Bradley open melting point set (2014).

Where a name gives a salt, the structure may show the parent alone.

Turning to `COC(=O)/C=C/C(=O)OC` [dimethyl fumarate], the melting point stood at 104 °C.

`c1ccc(/N=N/c2ccccc2)cc1` [(E)-Diphenyldiazene] displayed a melting point of 68.5 °C.

Consider `Cc1ccc(N)cc1F` [3-fluoro-4-methylaniline], for which the melting point stood at 33 °C.

`Oc1cc(C(F)(F)F)n2nc(-c3ccc(Cl)cc3)cc2n1`: the melting point came out at 156 °C.

On to `CCCCCCCC#N` [octanenitrile], for which the melting point was -45 °C.

Take `C(=C\c1ccccc1)/c1ccccc1` [trans-stilbene]: the melting point was 124 °C.

`O=C(c1ccco1)C(O)c1ccco1` (stereo not given) [2,2'-furoin]: the melting point is 138 °C.

For the molecule `O=[N+]([O-])c1ncccc1Br` [3-bromo-2-nitropyridine], the melting point was 104 °C.

Turning to `NC(=O)C12CC3CC(CC(C3)C1)C2` [adamantane-1-carboxamide], the melting point is 187 °C.

`O=C(O)[C@H](O)[C@@H](O)C(=O)O` [L-tartaric acid] came in with a melting point of 169 °C.

With `Cc1ccc(NC(=S)NN)c(C)c1` [4-(2,4-dimethylphenyl)-3-thiosemicarbazide], the melting point was 151 °C.

`Clc1cccc(Cl)c1N=C1NCCN1` [Clonidine]: the melting point stood at 130 °C.

`O=C1OC(=O)c2ccccc21` [phthalic anhydride] returned a melting point of 132 °C.

`COC(=O)CCC(C)C1CCC2C3C(=O)C(Br)C4CCCCC4(C)C3CCC12C` (stereo not given) [methyl 6-bromo-7-oxocholan-24-oate] showed a melting point of 124 °C.

Regarding `N#Cc1ccc(F)cc1[N+](=O)[O-]` [4-fluoro-2-nitrobenzonitrile], the melting point stood at 71 °C.

As for `O=S(F)F` [Thionyl difluoride], the melting point was -110 °C.

Take `CC(C)[C@@H](C)/C=C/[C@@H](C)[C@H]1CC[C@H]2C3=CC=C4C[C@@H](O)CC[C@]4(C)[C@H]3CC[C@]12C` [(3beta,22E)-Ergosta-5,7,22-trien-3-ol]: the melting point was found to be 160 °C.

Consider `Nc1ccccc1C(=O)OCC=Cc1ccccc1` [anthranilic acid cinnamyl ester], for which the melting point came to 65 °C.

`Nc1cc(Cl)cc(Cl)c1` [3,5-dichloroaniline] registered a melting point of 53 °C.

For the molecule `Cc1ccc(C)c(Br)c1` [2-bromo-p-xylene], the melting point is 10 °C.

Consider `ON=C(Cl)c1ccc(Cl)cc1` [4-chloro-N-hydroxybenzenecarboximidoyl chloride], for which the melting point worked out at 278 °C.

Regarding `O=[N+]([O-])c1cccc(-c2ccccc2)c1` [3-nitrobiphenyl], the melting point is 62 °C.

Molecule `Oc1c(F)c(F)c(F)c(F)c1F` [Pentafluorophenol] gave a melting point of 35 °C.

Molecule `COc1ccc(C=CC(=O)c2ccccc2)c(OC)c1` [2,4-Dimethoxychalcone] gave a melting point of 70 °C.

In the case of `CCCCC(=O)c1ccccc1` [valerophenone], the melting point is -9 °C.

`C1CC[C@H]2CCCC[C@H]2C1` [cis-decahydronaphthalene] returned a melting point of -43 °C.

Turning to `NC(=O)c1ccc(Cl)cc1Cl` [2,4-dichlorobenzamide], the melting point was found to be 192 °C.

`N#CCc1csc2ccc(Cl)cc12` [5-chlorobenzo[b]thiophene-3-acetonitrile] yielded a melting point of 134 °C.

`Cc1cc(I)cc(C)c1O` [2,6-dimethyl-4-iodophenol]: the melting point worked out at 97 °C.

`CCn1c2ccccc2c2ccccc21` [9-ethylcarbazole] came in with a melting point of 69 °C.

`CC(=O)Nc1ccccc1C1C=c2ccccc2=N1` (stereo not given) [N-[2-(1H-indol-2-yl)phenyl]acetamide] gave a melting point of 152 °C.

For the molecule `Cc1cc(/C=C2\SC(N(CC#N)c3ccccc3)=NC2=O)c(C)n1-c1ccc(C(F)(F)F)cc1` [OSM-S-42], the melting point was determined as 182 °C.

Molecule `CN1Cc2c(N)cccc2C(c2ccccc2)C1` (stereo not given) [Nomifensine] showed a melting point of 180 °C.

For the molecule `CC(C)CCCC(C)C1CCC2C3CC=C4CC(OCOc5ccc(Cl)cc5)CCC4(C)C3CCC12C` (stereo not given) [3-[(4-chlorophenoxy)methoxy]cholest-5-ene], the melting point is 145 °C.

In turn, `CCOC(=O)/C=C\C(=O)OCC` [Diethyl (2Z)-but-2-enedioate] returned a melting point of -10 °C.

Molecule `COc1ccc(N)cc1` [p-anisidine] displayed a melting point of 59 °C.

`O=C(O)c1ccc(Br)cc1` [4-bromobenzoic acid] displayed a melting point of 253 °C.

As for `COc1ccc(B(O)O)cc1F` [3-fluoro-4-methoxybenzeneboronic acid], the melting point amounted to 238 °C.

On to `CC(=O)N1CCN(c2ccc(OC[C@@H]3CO[C@@](Cn4ccnc4)(c4ccc(Cl)cc4Cl)O3)cc2)CC1` [Ketoconazole], for which the melting point came out at 146 °C.

For the molecule `CC12CCC3C(CCC4CC(OCc5ccccc5)CCC43C)C1CCC2=O` (stereo not given) [3-(benzyloxy)androstan-17-one], the melting point turned out to be 220 °C.

For the molecule `CCOC(=O)Cc1cc(/C(=N/Nc2ccccc2)C(=O)OCC)c([N+](=O)[O-])cc1[N+](=O)[O-]`, the melting point is 155 °C.

For `O=C(/C=C/OC(=O)c1ccccc1)CCc1ccccc1` [(1E)-3-oxo-5-phenylpent-1-en-1-yl benzoate], the melting point was 100 °C.

In the case of `CC12CCC(C=C/C1=N\O)C2(C)C` (stereo not given) [(2E)-N-hydroxy-1,8,8-trimethylbicyclo[3.2.1]oct-3-en-2-imine], the melting point turned out to be 146 °C.

`O=C4\C=C2/[C@]([C@H]1CC[C@@]3([C@@H](C(=O)CO)CC[C@H]3[C@@H]1CC2)C)(C)CC4` [deoxycorticosterone] came in with a melting point of 142 °C.

With `OC(C(F)(F)F)C(F)(F)F` [1,1,1,3,3,3-hexafluoro-2-propanol], the melting point is -3 °C.

Consider `CC(=O)N[C@H]1C(O)O[C@H](CO)[C@@H](O)[C@@H]1O` (stereo partly drawn) [N-Acetyl-D-glucosamine], for which the melting point is 205 °C.

Molecule `Cc1ccc2cc3c(ccc4ccccc43)c3c2c1CC3` [3-methylcholanthrene] returned a melting point of 180 °C.

`O=C(O)c1cc([N+](=O)[O-])cc([N+](=O)[O-])c1` [3,5-Dinitrobenzoic acid] registered a melting point of 206 °C.

In the case of `CCCCOC(=O)c1ccc(O)cc1` [butyl 4-hydroxybenzoate], the melting point was found to be 69 °C.

In turn, `CCOC(=O)c1ccc(O)cc1` [ethylparaben] returned a melting point of 116 °C.

`Brc1cccc(I)c1` [1-bromo-3-iodobenzene] gave a melting point of -9 °C.

`COc1ccc2cc(C(C)COC(C)=O)ccc2c1` (stereo not given) [Naproxol acetate]: the melting point was found to be 61 °C.

The molecule `CC(C(=O)O)c1ccccc1` (stereo not given) [2-phenylpropionic acid] had a melting point of -5 °C.

Take `COc1cc(CC(=O)O)c([N+](=O)[O-])cc1OC` [4,5-dimethoxy-2-nitrophenylacetic acid]: the melting point was found to be 207 °C.

`CCCC(C)Br` (stereo not given) [2-bromopentane] registered a melting point of -96 °C.

For the molecule `CC(C)CC1=C/C(=C/c2ccc(-c3ccc([N+](=O)[O-])cc3)o2)C(=O)O1`, the melting point was determined as 163 °C.

Molecule `N#C/C(=C\c1ccc(Cl)cc1)c1nc(-c2ccccc2)cs1` gave a melting point of 104 °C.

The molecule `O=[N+]([O-])c1cccc(C=NO)c1` [m-Nitrobenzaldehyde oxime] returned a melting point of 120 °C.

Regarding `O[C@H](CS)[C@H](O)CS` (racemic) [1,4-dithio-dl-threitol], the melting point stood at 42 °C.

In turn, `COC(CC(C)=O)OC` [acetylacetaldehyde dimethyl acetal] gave a melting point of -83 °C.

As for `CP(C)(C)=S` [trimethylphosphine sulfide], the melting point was 156 °C.

Turning to `O=C1[C@@H]2[C@H](C(=O)N1O)[C@@H]1C=C[C@H]2C1` [endo-n-hydroxy-5-norbornene-2,3-dicarboximide], the melting point is 168 °C.

On to `Cc1c(N(C)C)c(=O)n(-c2ccccc2)n1C` [Aminopyrine], for which the melting point came to 108 °C.

`CC(N)C(=O)O` (stereo in doubt) [D-Alanine] had a melting point of 292 °C.

For `CC(C)O` [Isopropyl Alcohol], the melting point was -89.5 °C.

The molecule `Nc1c(Br)cc(Br)c2c1C(=O)c1ccccc1C2=O` [1-Amino-2,4-dibromo-9,10-anthraquinone] gave a melting point of 226 °C.

Regarding `CCOC(=O)C(NC=O)C(=O)OCC` [diethyl formamidomalonate], the melting point was 53 °C.

On to `Nc1c(Cl)cc(Cl)cc1Cl` [2,4,6-trichloroaniline], for which the melting point came to 77 °C.

On to `Oc1c(I)cc(I)cc1I` [2,4,6-triiodophenol], for which the melting point came to 158 °C.

`C[C@]12CCC(=O)C=C1CC[C@@H]1[C@@H]2[C@@H](O)C[C@@]2(C)[C@H]1CC[C@]2(O)C(=O)CO` [hydrocortisone] came in with a melting point of 221 °C.

As for `CN(C)C(=O)Nc1ccc(Cl)cc1` [N-(4-chlorophenyl)-N',N'-dimethylurea], the melting point was 173 °C.

Turning to `C=CCI` [3-iodo-1-propene], the melting point is -99 °C.

For the molecule `C=CCCCC` [1-hexene], the melting point is -140 °C.

`COC(C)=O` [methyl acetate] had a melting point of -98 °C.

Take `CC(=O)N[C@@H](CS)C(=O)O` [N-acetyl-l-cysteine]: the melting point is 110 °C.

Turning to `O=C(O)Cc1ccccc1Nc1c(Cl)cccc1Cl` [diclofenac], the melting point came to 157 °C.

As to `O=C(/N=N/C(=O)OCc1ccccc1)OCc1ccccc1` [dibenzyl azodicarboxylate], the melting point came to 45 °C.

In the case of `Cc1ccc2ncccc2c1[N+](=O)[O-]` [6-methyl-5-nitroquinoline], the melting point came to 117 °C.

The molecule `CCCCCCCCCCCCCCCC(=O)OC` [methyl palmitate] showed a melting point of 31 °C.

For `CCOC(=O)C(C)=O` [ethyl pyruvate], the melting point was -58 °C.

With `O=Cc1ccc(B(O)O)cc1F` [3-fluoro-4-formylbenzeneboronic acid], the melting point was 240 °C.

`CCC` [propane] registered a melting point of -188 °C.

`Cc1ccc(F)c(C=O)c1Cl` [2-chloro-6-fluoro-3-methylbenzaldehyde] registered a melting point of 27 °C.

On to `CCC1(O)CCC2C3CCC4CC(OC(C)=O)CCC4(C)C3CCC21C` (stereo not given) [17-hydroxypregnan-3-yl acetate], for which the melting point was found to be 165 °C.

As to `Nc1cc([N+](=O)[O-])ccc1O` [2-amino-4-nitrophenol], the melting point stood at 144 °C.

The melting point is the temperature of the solid-liquid transition.
